Measurements reported in publication PMC11600510 (Journal of Chemical Information and Modeling, 2024).

Legend:
[1] = target: T1, Spike RBD/ACE2 (19–615) interaction (Severe acute respiratory syndrome coronavirus 2, UniProt P0DTC2); test: cell-based; format: cell-based, SARS-CoV-2
T1 construct: S protein RBD (aa residues 319–541) of SARS-CoV-2; expressed in transfected cells; host or cells: HEK293T

Vero E6 cells = test: MTT toxicity assay in Vero E6 cells; format: cell-based; conditions: 48 h
Protocol: (§1) Chemical compounds were dissolved and serially diluted in DMSO. Their cytotoxicity was assessed using an MTT assay. Briefly, HEK293T, SH-SY5Y or Vero E6 cells were cultured in 96-well plates (4 × 10^4 cells/well) at 37 °C in a 5% CO2 atmosphere. Cells were treated for 48 h with varying concentrations of the compounds (100–0.1 μM) or solvent. […] Treated cells were incubated for 4 h with […] MTT (Applichem). After incubation, the MTT-containing medium was removed and formazan crystals were dissolved in DMSO. The optical density (OD) of formazan solution at 570 and 630 nm was measured in a SPARK plate reader (Tecan).

HEK293T cells = test: MTT cytotoxicity assay in HEK293T cells; format: cell-based; conditions: 100 μM, 48 h
Protocol: as §1

SMILES	inhibition at 10 µM ([1]; HEK-293T, 48 h, read-out: suppression of Spike RBD/ACE2 (19–615) interaction) [%]	toxicity against Vero E6 cells (Vero E6 cells)	melting point	suppression of Spike/ACE2 interaction ([1]; 100 μM) [%]	cytotoxicity (HEK293T cells)
O=[N+]([O-])c1ccc(/C=C/C[n+]2cn(CCc3ccc4ccccc4c3)c3ccccc32)cc1.[Br-] [CKP-47, (E)-1-(2-(Naphthalen-2-yl)ethyl)-3-(3-(4-nitrophenyl)allyl)-1H-benzo[d]imidazol-3-ium Bromide]	34	toxic	176 to 177 °C (dec.)	–	–
Cc1cc(O)c2c(c1)C(=O)c1cc(O)cc(O)c1C2=O [Emodin, reference compound]	–	–	–	~27	non-cytotoxic
